Data from patent publication US20210009564A1, “CALPAIN MODULATORS AND THERAPEUTIC USES THEREOF” (BLADE THERAPERTICS, INC., priority 2018, published 2021).

Columns and labels:
[1] = biological target: T1, Human Calpain 1/NS1 (Homo sapiens, UniProt P07384); assay: Calpain inhibition, continuous fluorescence (FRET substrate) assay, calpain 1; format: biochemical; conditions: SensoLyte 520 FRET substrate, 25C
T1 sequence (P07384 1-714): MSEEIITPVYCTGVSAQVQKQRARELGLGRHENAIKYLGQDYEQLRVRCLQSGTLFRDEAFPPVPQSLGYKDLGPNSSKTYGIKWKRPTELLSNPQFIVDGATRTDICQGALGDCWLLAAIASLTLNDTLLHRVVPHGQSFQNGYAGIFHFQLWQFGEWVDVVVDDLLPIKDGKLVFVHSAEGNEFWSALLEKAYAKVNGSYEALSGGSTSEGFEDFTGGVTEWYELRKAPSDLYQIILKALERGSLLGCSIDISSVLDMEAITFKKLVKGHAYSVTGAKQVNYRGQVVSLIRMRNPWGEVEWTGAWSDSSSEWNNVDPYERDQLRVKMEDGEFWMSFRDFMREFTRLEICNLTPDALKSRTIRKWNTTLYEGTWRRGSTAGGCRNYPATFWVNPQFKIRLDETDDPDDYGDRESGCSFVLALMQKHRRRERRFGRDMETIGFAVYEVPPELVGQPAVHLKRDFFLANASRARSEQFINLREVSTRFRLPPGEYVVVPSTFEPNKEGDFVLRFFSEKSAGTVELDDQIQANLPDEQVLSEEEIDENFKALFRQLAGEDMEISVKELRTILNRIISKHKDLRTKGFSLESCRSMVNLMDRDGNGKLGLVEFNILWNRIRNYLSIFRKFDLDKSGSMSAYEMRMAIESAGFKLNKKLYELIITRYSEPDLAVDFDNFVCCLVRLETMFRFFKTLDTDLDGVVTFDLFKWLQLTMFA
T1 sequence (P04632 1-268 partner): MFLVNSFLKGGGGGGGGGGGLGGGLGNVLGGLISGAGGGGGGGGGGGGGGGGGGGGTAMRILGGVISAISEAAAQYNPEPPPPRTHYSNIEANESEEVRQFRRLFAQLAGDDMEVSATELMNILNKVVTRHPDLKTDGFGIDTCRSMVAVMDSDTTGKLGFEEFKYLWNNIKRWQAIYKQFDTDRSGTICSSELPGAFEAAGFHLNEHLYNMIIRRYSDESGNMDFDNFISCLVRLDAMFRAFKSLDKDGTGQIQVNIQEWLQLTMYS
Summary of the method: (§1)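 Calpains preincubated with serially diluted inhibitors at 25 °C in 50 mM Tris pH 7.5, 100 mM NaCl, 1 mM DTT; CaCl2 plus 5-FAM/QXL 520 FRET substrate started the reaction. Fluorescence (490/520 nm) read 10 min; rates from 1-5 min slopes, IC50 from 4-parameter logistic fit.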

[2] = biological target: T2, Human Calpain 2/NS1 (Homo sapiens, UniProt P17655); assay: Calpain inhibition, continuous fluorescence (FRET substrate) assay, calpain 2; format: biochemical; conditions: SensoLyte 520 FRET substrate, 25C
T2 sequence (P17655 1-700): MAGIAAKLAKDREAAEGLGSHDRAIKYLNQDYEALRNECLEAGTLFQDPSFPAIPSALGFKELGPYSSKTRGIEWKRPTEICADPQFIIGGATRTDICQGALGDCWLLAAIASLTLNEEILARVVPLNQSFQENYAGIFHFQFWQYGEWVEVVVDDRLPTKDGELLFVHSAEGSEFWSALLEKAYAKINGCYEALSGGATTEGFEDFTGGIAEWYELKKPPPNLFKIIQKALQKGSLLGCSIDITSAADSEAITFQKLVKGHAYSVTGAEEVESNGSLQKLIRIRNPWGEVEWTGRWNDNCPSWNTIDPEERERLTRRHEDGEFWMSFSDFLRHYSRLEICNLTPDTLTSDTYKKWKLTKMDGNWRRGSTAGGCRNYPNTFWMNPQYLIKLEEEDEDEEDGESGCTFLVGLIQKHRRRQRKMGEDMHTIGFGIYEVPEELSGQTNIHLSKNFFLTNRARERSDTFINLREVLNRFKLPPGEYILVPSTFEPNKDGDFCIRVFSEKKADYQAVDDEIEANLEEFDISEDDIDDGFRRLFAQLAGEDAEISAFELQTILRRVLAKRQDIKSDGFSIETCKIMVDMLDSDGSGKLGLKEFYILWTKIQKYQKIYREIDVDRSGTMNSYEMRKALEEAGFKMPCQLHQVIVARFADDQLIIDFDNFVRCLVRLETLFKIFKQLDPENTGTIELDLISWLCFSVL
T2 sequence (P04632 1-268 partner): T1 sequence (P04632 1-268 partner)
Summary of the method: as §1

[3] = biological target: T3, Human Calpain 9/NS1 (Homo sapiens, UniProt O14815); assay: Calpain inhibition, continuous fluorescence (FRET substrate) assay, calpain 9; format: biochemical; conditions: SensoLyte 520 FRET substrate, 25C
T3 sequence (O14815 1-690): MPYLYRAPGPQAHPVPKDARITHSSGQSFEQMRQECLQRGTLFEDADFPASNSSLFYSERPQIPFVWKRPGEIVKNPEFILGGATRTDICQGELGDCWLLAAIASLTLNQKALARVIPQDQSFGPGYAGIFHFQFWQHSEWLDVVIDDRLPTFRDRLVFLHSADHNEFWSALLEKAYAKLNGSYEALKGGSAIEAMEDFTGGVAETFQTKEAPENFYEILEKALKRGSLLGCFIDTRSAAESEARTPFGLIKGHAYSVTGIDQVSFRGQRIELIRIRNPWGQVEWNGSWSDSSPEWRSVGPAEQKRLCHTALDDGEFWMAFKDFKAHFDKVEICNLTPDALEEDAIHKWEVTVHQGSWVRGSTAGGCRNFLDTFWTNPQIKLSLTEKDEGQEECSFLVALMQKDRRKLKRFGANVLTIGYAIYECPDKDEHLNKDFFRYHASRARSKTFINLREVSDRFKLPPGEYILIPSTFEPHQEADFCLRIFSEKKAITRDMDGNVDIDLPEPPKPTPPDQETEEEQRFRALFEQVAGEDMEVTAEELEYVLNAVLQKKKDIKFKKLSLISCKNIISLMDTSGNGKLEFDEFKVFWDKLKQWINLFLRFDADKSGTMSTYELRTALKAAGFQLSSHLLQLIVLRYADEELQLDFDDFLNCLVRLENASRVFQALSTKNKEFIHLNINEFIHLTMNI
T3 sequence (P04632 1-268 partner): T1 sequence (P04632 1-268 partner)
Summary of the method: as §1

[4] = system: Calpain activity in SH-SY5Y cells; assay: SH-SY5Y spectrin breakdown product (SBDP-150) western blot assay; format: cell-based; conditions: SH-SY5Y cells, 25 uM A23187, SBDP-150 western blot, read-out: SH-SY5Y Spectrin IC50
[5] = system: Calpain activity in SH-SY5Y cells; assay: SH-SY5Y Suc-LLVY-AMC fluorescence assay; format: cell-based; conditions: SH-SY5Y cells, 100 uM Suc-LLVY-AMC, read-out: SH-SY5Y + AMC IC50

Row | SMILES | IC50 [1] | IC50 [2] | IC50 [3] | IC50 ([4]; Homo sapiens) | IC50 ([5]; Homo sapiens) | IC50 [4] | IC50 [5]
1 | O=C(NC(Cc1ccccc1)C(=O)c1ncco1)c1nsnc1-c1ccccc1 (centres unmarked) [Compound 85, N-(1-(OXAZOL-2-YL)-1-OXO-3-PHENYLPROPAN-2-YL)-4-PHENYL-1,2,5-THIADIAZOLE-3-CARBOXAMIDE] | > 10 µM | > 10 µM | > 10 µM | > 25 µM | < 10 µM |  | 
2 | NC(=O)C(=O)C(Cc1ccccc1)NC(=O)c1oc(C(F)F)nc1-c1cccc2cn[nH]c12 (centres unmarked) [Compound 94, N-(4-AMINO-3,4-DIOXO-1-PHENYLBUTAN-2-YL)-2-(DIFLUOROMETHYL)-4-(1H-INDAZOL-7-YL)OXAZOLE-5-CARBOXAMIDE] | < 3 µM | < 3 µM | < 3 µM |  |  | < 10 µM | < 10 µM
3 | O=C(NC(Cc1ccccc1)C(=O)Nc1ncco1)c1nsnc1-c1ccccc1 (centres unmarked) [Compound 57, N-(1-(OXAZOL-2-YLAMINO)-1-OXO-3-PHENYLPROPAN-2-YL)-4-PHENYL-1,2,5-THIADIAZOLE-3-CARBOXAMIDE] | > 10 µM | > 10 µM | > 10 µM | > 25 µM | > 25 µM |  | 

Now from value to compound, other results behind:

Row | IC50 [1] | IC50 [2] | IC50 [3] | IC50 ([4]; Homo sapiens) | IC50 ([5]; Homo sapiens) | SMILES | IC50 [4] | IC50 [5]
4 | < 3 µM | < 3 µM | < 3 µM | < 10 µM | 10 to 25 µM | Cn1cc(C(=O)NC(Cc2ccccc2)C(=O)C(N)=O)c(-c2cccc3cn[nH]c23)n1 (centres unmarked) [Compound 39, N-(4-AMINO-3,4-DIOXO-1-PHENYLBUTAN-2-YL)-3-(1H-INDAZOL-7-YL)-1-METHYL-1H-PYRAZOLE-4-CARBOXAMIDE] |  | 
5 | < 3 µM | < 3 µM | < 3 µM | > 25 µM | > 25 µM | Cn1cc(C(=O)NC(Cc2ccccc2)C(=O)C(N)=O)c(-c2cccc3ccncc23)n1 (centres unmarked) [Compound 54] |  | 
6 | < 3 µM | < 3 µM | < 3 µM | > 25 µM | > 25 µM | Cn1cc(C(=O)NC(Cc2ccccc2)C(=O)C(N)=O)c(-c2ccc3cccnc3c2)n1 (centres unmarked) [Compound 1, N-(4-AMINO-3,4-DIOXO-1-PHENYLBUTAN-2-YL)-1-METHYL-3-(QUINOLIN-7-YL)-1H-PYRAZOLE-4-CARBOXAMIDE] |  | 
7 | < 3 µM | < 3 µM | < 3 µM | 10 to 25 µM | < 10 µM | Cc1nc(-c2ccccc2F)c(C(=O)NC(Cc2cccc(F)c2)C(=O)C(N)=O)o1 (centres unmarked) [Compound 87, N-(4-AMINO-1-(3-FLUOROPHENYL)-3,4-DIOXOBUTAN-2-YL)-4-(2-FLUOROPHENYL)-2-METHYLOXAZOLE-5-CARBOXAMIDE] |  | 
